The record followed here is patent publication US20230151336A1, “STEM CELL DERIVED SINGLE-ROSETTE BRAIN ORGANOIDS AND RELATED USES THEROF” (The Regents of the University of Michigan, priority 2020, published 2023).

Common to all, as to assay type: cell-based, human
The test system of series [1] is self-organizing single-rosette spheroids (SOSRS). Put plainly: SOSRS neuroteratogen screening (structural read-out of lumen/neurulation). On the procedure:
iPSC lines were passaged using Accutase (Innovative cell) and replated onto Geltrex-coated (1:50 dilution in DMEM/F12) 12-well plates at 1.5-2×10^5 cells/well in mTeSR1 with 10 μM rho-kinase inhibitor (Y-27632; Tocris, 1254). The medium without the inhibitor was replaced daily until the cells reach 80-100% confluency. The medium was then changed to 3N (50:50 DMEM/F12:neurobasal with N2 and B27 supplements) (see, Shi, Y., et al., Nature Neuroscience 15, 477-486 (2012)) without vitamin A with 2 μM DMH1 (Tocris, 4126), 2 μM XAV939 (Cayman Chemical, 13596), and 10 μM SB431542 (Cayman Chemical, 13031) (4 mL of medium per well). 75% of this medium was changed daily with 1 μM cyclopamine (Cayman Chemical, 11321) added beginning on day 1. On day 4, the monolayer was cut into squares using the StemPro EZ passage tool. The squares were then washed once with PBS and incubated for 2 minutes with L7 hPSC passaging solution (Lonza). After aspirating the L7 solution, the squares were sprayed off the bottom with the same culture medium 1 mL of preconditioned culture media with a P1000 micropipette. An additional 2 mL of fresh culture medium with the 4 inhibitors was added for a final volume of 3 mL. Approximately 200 μL of resuspended squares were then transfer into the wells of 96-well plates preincubated at 37° C. for 20 minutes with 30 μL of 100% Geltrex solution in each well. Up to 16 wells can be made using one monolayer well. Higher densities will result in fusion between nearby SOSRS forming multi-rosette doublets or “strings”. After 48 hours, daily 50% media changes were performed. On day 6 overall (2 days after cutting), the four inhibitors were no longer added but replaced with the 3 μM CHIR99021. After 3-4 additional days of culture, the wells were washed once with PBS and incubated for 2 minutes with L7 solution. The organoids were individually removed using the STRIPPER (Cooper Surgical) with 275 μM tips and plated individually in the wells of a low-adherence U-bottom 96-well plate with 200 μL of 3N medium without vitamin A with 3 μM CHIR99021, BDNF (20 ng/mL), and NT3 (20 ng/mL). Ideal diameters for picking the SOSRS are between 250-300 μM. Two days later half-fold media changes with 3N with vitamin A, BDNF (20 ng/mL), and NT3 (20 ng/mL) and repeated every other day. After 35 days of differentiation, 3N media with vitamin A without neurotrophic factors (BDNF and NT3) is used for half-fold media changes every other day. Around this time, SOSRS are transferred from the low-adherence 96-well plate to a low-adherence 24 well plate for a necessary increase in media volume due to SOSRS size.
(§1) SOSRS imaged before day 11 were grown on Nunc™ Lab-Tek™ III 8-well chamber slides (Thermo Scientific) and were fixed in paraformaldehyde for 30 min at room temperature (RT). After permeabilization with 0.2% Triton-X 100 for 20 min at RT, cells were incubated in PBS containing 5% normal goat serum with 1% BSA and 0.05% Triton-X100 for 1 h at RT. Older SOSRS were fixed for 30 minutes in suspension and incubated in 30% sucrose overnight at 4 C followed by embedding in TFM medium and freezing on dry ice. The blocks were sectioned on a Cryostat with 20 μM section thickness. All samples were incubated in primary antibody overnight (see Supplemental Table 2 for antibodies and dilutions) in the same blocking buffer at 4° C., washed 4 times in PBS with 0.05% Tween-20 (PBST), and incubated for 90 min with secondary antibody. Cells were washed 3 times in PBST and incubated with bisbenzimide for 5 min. After additional PBS washes, coverslips were mounted on slides with Glycergel mounting medium (Agilent Dako). Images were obtained on a Leica SP5 upright DMI 6000 confocal microscope.
This 3D model of human neurulation allowed us to test known neuroteratogens that block a specific pathway necessary for proper neural tube formation. These were the rho-kinase inhibitor, Y-27632, and the non-muscle myosin inhibitor, blebbistatin^26, 27. […]

A further series concerns ventral SOSRS. Put plainly: Ventral SOSRS patterning (immunostaining, size). On the procedure:
For ventral SOSRS differentiation, no cyclopamine or CHIR99021 were used. After plating onto Geltrex, 1 μM SAG and 2 μM XAV939 were added the culture media for 1 week. All other procedures were performed identically (FIG. 5).
as §1, with “microscope. […]” for “microscope.”

For series [2], the system named is self-organizing single-rosette spheroids (SOSRS). Put plainly: SOSRS cell death and growth during dorsal differentiation. The method, then:
iPSC lines were passaged using Accutase (Innovative cell) and replated onto Geltrex-coated (1:50 dilution in DMEM/F12) 12-well plates at 1.5-2×10^5 cells/well in mTeSR1 with 10 μM rho-kinase inhibitor (Y-27632; Tocris, 1254). The medium without the inhibitor was replaced daily until the cells reach 80-100% confluency. The medium was then changed to 3N (50:50 DMEM/F12:neurobasal with N2 and B27 supplements) (see, Shi, Y., et al., Nature Neuroscience 15, 477-486 (2012)) without vitamin A with 2 μM DMH1 (Tocris, 4126), 2 μM XAV939 (Cayman Chemical, 13596), and 10 μM SB431542 (Cayman Chemical, 13031) (4 mL of medium per well). 75% of this medium was changed daily with 1 μM cyclopamine (Cayman Chemical, 11321) added beginning on day 1. On day 4, the monolayer was cut into squares using the StemPro EZ passage tool. The squares were then washed once with PBS and incubated for 2 minutes with L7 hPSC passaging solution (Lonza). After aspirating the L7 solution, the squares were sprayed off the bottom with the same culture medium 1 mL of preconditioned culture media with a P1000 micropipette. An additional 2 mL of fresh culture medium with the 4 inhibitors was added for a final volume of 3 mL. Approximately 200 μL of resuspended squares were then transfer into the wells of 96-well plates preincubated at 37° C. for 20 minutes with 30 μL of 100% Geltrex solution in each well. Up to 16 wells can be made using one monolayer well. Higher densities will result in fusion between nearby SOSRS forming multi-rosette doublets or “strings”. After 48 hours, daily 50% media changes were performed. On day 6 overall (2 days after cutting), the four inhibitors were no longer added but replaced with the 3 μM CHIR99021. After 3-4 additional days of culture, the wells were washed once with PBS and incubated for 2 minutes with L7 solution. The organoids were individually removed using the STRIPPER (Cooper Surgical) with 275 μM tips and plated individually in the wells of a low-adherence U-bottom 96-well plate with 200 μL of 3N medium without vitamin A with 3 μM CHIR99021, BDNF (20 ng/mL), and NT3 (20 ng/mL). […]

Where [3] appears, read: addition from day 6-10, 3 μM, FIG. 2.

As to `Cc1ccc2c(c1)C(=O)C1(O)CCN(c3ccccc3)C1=N2` (stereo not drawn) [blebbistatin], in series [1], the “apical end-feet surface areas (ZO-1)” value is given as “increased”, the lumen circularity entry is listed as “decreased” and the lumen/total area result is “increased”.

`Oc1nc(-c2ccc(C(F)(F)F)cc2)nc2c1CSCC2` [XAV939, 3,5,7,8-Tetrahydro-2-[4-(trifluoromethyl)phenyl]-4H-thiopyrano[4,3-d]pyri-midin-4-one]: the “SOSRS size and MGE specification” value with ventral SOSRS (continued day 7 to day 14 with SAG, data not shown) is listed as “increase”.

Turning to `Cc1c[nH]c(-c2cnc(NCCNc3ccc(C#N)cn3)nc2-c2ccc(Cl)cc2Cl)n1` [CHIR99021], in series [2] (setting [3]), the SOSRS growth entry was “grow more rapidly” and the “cell death around SOSRS perimeter” value is reported as “blocked the majority of cell death”. Besides, the PAX6 positive cells result in series [2] (pulse day 6-10, FIGS. 1i and j) is on record as “rapid expansion”.

Consider `CNC1CCC(N(Cc2cccc(-c3ccncc3)c2)C(=O)c2sc3ccccc3c2Cl)CC1` (stereo not drawn) [SAG], for which the NKX2.1/FOXG1 positive cells with ventral SOSRS (one-month SOSRS, SAG instead of CHIR99021 from day 7 to day 14, XAV939 continued) is listed as about 100%.

With `C[C@@H](N)[C@H]1CC[C@H](C(=O)Nc2ccncc2)CC1` [Y-27632], in series [1], the “apical end-feet surface areas (ZO-1)” value was “increased”, the lumen circularity result is reported as “decreased” and the lumen/total area result is reported as “increased”.

For the compound `CC(/C=C/C(=O)NO)=C\[C@@H](C)C(=O)c1ccc(N(C)C)cc1` [TSA], the “replication of the VPA effect on ratio of lumen area to SOSRS area” value in series [1] is given as “not replicated”.
